Measurements taken from patent US7629294B2, “Pyrazolopyrimidines” (Bayer CropScience LP, priority 2004, dated 2009).

chromatographic logP (physchem; logPs)	SMILES	other results
	CCOP(=O)(OCC)c1cnn2c(NC(C)C(C)(C)C)c(-c3ccc(F)cc3Cl)c(Cl)nc12 (stereo not shown) [Example XXIII, diethyl {5-chloro-6-(2-chloro-4-fluorophenyl)-7-[(1,2,2-trimethylpropyl)-amino]pyrazolo[1,5-a]pyrimidin-3-yl}phosphonate]	chromatographic logP (logP (HPLC)): 4.48
	CCOP(=O)(O)c1cnn2c(NC(C)C(C)(C)C)c(-c3ccc(F)cc3Cl)c(Cl)nc12 (stereo not shown) [Example XXIV, ethyl hydrogen {5-chloro-6-(2-chloro-4-fluorophenyl)-7-[(1,2,2-trimethylpropyl)-amino]pyrazolo[1,5-a]pyrimidin-3-yl}phosphonate]	chromatographic logP (logP (HPLC)): 3.01
	COC(=O)c1cnn2c(Cl)c(-c3ccc(C#N)cc3Cl)c(Cl)nc12 [methyl 5,7-dichloro-6-(2-chloro-4-cyanophenyl)pyrazolo[1,5-a]pyrimidine-3-carboxylate]	chromatographic logP (physchem; logP): 2.85
3.75	CC(C)C(C)Nc1c(-c2ccc(F)cc2Cl)c(Cl)nc2c(/C=N/NC(N)=S)cnn12 (stereo not shown) [Thiosemicarbazone of 5-chloro-6-(2-chloro-4-fluorophenyl)-7-(1,2-dimethyl-propylamino)pyrazolo[1,5-a]pyrimidine-3-carbaldehyde]	
2.91	Cc1nnc(-c2cnn3c(NC(C)C(C)C)c(-c4ccc(F)cc4Cl)c(Cl)nc23)[nH]1 (stereo not shown) [XXXVII, [5-chloro-6-(2-chloro-4-fluorophenyl)-3-(5-methyl-[1,3,4]triazol-2-yl)pyrazolo[1,5-a]pyrimidin-7-yl](1,2-dimethylpropyl)-amine]	
4.72	CC(C)NC(=O)c1cnn2c(N[C@H](C)C(C)C)c(-c3c(F)cccc3Cl)c(Cl)nc12 [Example IV, 5-chloro-6-(2-chloro-6-fluorophenyl)-7-{[(1R)-1,2-dimethylpropyl]amino}-N-isopropylpyrazolo[1,5-a]pyrimidine-3-carboxamide]	
3.65	COc1nc2c(C(=O)O)cnn2c(NC(C)C(C)C)c1-c1sccc1C (stereo not drawn) [Example XXV, 7-(1,2-dimethylpropylamino)-5-methoxy-6-(3-methylthiophen-2-yl)pyrazolo[1,5-α]pyrimidine-3-carboxylic acid]	
